Assay results from US20120122860A1, “SOLID FORMS OF SULFONAMIDES AND AMINO ACIDS” (Plexxikon, Inc., priority 2009, published 2012).

How the values were obtained:
Kdr = Kdr (Homo sapiens, UniProt P35968); assay: Kinase activity assay, Kdr
C-Raf = C-Raf (Homo sapiens, UniProt P04049); assay: Kinase activity assay, C-Raf
B-Raf V600E = B-Raf V600E (Homo sapiens, UniProt P15056, V600E); assay: Kinase activity assay, B-Raf V600E; format: biochemical; conditions: read-out: activity toward kinase B-Raf V600E, IC50
Chain of B-Raf V600E (P15056 whole entry V600E): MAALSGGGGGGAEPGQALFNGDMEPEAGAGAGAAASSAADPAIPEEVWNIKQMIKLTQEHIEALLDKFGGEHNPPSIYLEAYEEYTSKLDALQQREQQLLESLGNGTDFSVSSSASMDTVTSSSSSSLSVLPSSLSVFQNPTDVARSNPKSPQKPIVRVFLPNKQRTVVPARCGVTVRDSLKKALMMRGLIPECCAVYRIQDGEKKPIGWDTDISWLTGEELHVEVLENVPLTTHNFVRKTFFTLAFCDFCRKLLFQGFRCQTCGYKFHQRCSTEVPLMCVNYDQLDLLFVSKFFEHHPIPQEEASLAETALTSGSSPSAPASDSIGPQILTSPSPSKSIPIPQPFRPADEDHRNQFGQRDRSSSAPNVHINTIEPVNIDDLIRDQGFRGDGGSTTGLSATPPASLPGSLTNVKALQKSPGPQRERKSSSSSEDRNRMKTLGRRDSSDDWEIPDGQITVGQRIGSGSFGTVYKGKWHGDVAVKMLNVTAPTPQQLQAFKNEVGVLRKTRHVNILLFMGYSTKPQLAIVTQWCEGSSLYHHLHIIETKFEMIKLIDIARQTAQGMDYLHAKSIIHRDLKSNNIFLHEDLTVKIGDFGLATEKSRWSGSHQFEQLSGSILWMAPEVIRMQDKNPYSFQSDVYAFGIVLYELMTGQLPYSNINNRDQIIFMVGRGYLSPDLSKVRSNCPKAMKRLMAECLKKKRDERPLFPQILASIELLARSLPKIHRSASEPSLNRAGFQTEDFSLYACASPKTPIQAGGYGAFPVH

B-Raf = B-Raf (Homo sapiens, UniProt P15056); assay: Kinase activity assay, B-Raf; format: biochemical; conditions: read-out: activity toward kinase B-Raf, IC50
Chain of B-Raf (P15056 whole entry): as the sequence (P15056 whole entry V600E) above, with E600V counted along it

Src = Src (Homo sapiens, UniProt P12931); assay: Kinase activity assay, Src
TrkA = TrkA (Homo sapiens, UniProt P04629); assay: Kinase activity assay, TrkA
A-Raf = biological target: T1, A-Raf (Homo sapiens, UniProt P10398); assay: Kinase activity assay, A-Raf
T1 sequence (P10398 1-606): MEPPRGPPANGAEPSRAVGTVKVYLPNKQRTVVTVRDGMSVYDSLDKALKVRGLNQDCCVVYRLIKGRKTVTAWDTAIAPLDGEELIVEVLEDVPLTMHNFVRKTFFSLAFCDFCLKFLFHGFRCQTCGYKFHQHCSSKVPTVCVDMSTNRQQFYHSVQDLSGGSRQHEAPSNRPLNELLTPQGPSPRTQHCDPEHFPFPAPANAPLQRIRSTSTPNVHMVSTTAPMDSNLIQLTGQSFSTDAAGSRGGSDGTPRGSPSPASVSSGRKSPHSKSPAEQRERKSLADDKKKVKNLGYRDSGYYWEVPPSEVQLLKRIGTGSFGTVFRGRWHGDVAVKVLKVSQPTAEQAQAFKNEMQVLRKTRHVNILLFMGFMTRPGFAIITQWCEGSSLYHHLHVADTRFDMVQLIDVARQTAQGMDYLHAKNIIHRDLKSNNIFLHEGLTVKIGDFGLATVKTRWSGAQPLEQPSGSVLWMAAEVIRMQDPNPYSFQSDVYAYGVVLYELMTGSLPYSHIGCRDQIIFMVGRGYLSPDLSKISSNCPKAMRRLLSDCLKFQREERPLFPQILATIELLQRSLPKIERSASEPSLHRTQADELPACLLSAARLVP

MAP4K4 = MAP4K4 (Homo sapiens, UniProt O95819); assay: Kinase activity assay, MAP4K4
Fms = Fms (Homo sapiens, UniProt P07333); assay: Kinase activity assay, Fms
Chain of Fms (P07333 20-972): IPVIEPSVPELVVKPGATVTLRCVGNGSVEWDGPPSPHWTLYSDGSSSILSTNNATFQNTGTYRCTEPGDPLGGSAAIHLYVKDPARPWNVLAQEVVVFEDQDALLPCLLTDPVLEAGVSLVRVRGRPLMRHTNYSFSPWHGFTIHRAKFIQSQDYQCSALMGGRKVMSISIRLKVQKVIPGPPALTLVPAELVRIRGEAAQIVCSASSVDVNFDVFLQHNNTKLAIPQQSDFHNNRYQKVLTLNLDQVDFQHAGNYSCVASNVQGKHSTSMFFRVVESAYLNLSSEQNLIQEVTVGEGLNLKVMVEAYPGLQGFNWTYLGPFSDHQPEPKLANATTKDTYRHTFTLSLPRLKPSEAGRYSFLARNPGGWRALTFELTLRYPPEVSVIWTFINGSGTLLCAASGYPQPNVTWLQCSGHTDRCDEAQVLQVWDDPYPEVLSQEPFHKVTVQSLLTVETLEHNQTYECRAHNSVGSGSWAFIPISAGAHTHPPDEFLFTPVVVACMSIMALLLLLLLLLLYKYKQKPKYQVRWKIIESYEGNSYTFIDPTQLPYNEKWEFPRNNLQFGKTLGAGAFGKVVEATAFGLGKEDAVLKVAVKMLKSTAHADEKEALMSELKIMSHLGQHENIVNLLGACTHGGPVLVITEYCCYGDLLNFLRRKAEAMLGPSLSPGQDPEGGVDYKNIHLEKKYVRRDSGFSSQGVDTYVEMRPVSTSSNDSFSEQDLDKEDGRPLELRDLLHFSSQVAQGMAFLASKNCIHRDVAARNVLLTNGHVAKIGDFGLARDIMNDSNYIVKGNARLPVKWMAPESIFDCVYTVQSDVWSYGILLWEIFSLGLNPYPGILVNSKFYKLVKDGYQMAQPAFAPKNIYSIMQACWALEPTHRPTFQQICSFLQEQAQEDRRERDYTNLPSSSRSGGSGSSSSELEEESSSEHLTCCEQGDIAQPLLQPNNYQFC

PI3Kα = PI3Kα (Homo sapiens, UniProt P42336); assay: Kinase activity assay, PI3Kα
Flt1 = Flt1 (Homo sapiens, UniProt P17948); assay: Kinase activity assay, Flt1
Chain of Flt1 (P17948 27-1338): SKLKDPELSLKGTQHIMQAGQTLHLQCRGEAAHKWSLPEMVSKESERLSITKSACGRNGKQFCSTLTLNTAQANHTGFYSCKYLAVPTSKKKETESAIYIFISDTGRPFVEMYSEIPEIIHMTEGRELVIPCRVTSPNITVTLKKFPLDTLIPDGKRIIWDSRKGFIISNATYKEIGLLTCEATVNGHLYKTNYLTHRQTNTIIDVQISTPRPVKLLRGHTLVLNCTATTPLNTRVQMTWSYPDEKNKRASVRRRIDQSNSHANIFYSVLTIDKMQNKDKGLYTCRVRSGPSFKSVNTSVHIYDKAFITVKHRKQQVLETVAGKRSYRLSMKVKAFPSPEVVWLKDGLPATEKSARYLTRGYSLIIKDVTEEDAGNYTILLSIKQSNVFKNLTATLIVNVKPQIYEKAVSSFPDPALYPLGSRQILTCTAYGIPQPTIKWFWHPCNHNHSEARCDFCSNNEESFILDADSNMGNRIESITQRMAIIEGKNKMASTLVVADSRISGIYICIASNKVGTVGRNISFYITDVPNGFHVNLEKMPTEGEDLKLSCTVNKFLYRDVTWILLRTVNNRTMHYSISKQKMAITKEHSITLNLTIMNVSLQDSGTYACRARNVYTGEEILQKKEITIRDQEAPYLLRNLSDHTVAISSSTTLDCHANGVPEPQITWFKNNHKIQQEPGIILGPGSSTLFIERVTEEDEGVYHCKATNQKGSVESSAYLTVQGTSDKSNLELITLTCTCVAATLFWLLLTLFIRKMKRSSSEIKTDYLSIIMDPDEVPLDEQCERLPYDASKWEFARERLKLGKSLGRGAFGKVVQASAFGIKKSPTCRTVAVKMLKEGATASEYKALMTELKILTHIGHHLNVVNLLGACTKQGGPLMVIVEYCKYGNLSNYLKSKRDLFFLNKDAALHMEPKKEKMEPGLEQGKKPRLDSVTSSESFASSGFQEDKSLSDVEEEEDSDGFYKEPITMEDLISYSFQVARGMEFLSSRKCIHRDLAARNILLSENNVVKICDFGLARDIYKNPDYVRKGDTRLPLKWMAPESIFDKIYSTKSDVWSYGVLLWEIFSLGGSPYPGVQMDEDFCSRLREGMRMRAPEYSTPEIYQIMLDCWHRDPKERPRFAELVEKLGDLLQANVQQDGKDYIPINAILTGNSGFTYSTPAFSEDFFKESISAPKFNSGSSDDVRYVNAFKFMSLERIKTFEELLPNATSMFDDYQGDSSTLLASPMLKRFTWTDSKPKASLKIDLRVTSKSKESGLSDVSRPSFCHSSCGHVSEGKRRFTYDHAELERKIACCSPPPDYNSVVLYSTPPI

Kit = Kit (Homo sapiens, UniProt P10721); assay: Kinase activity assay, Kit
Btk = Btk (Homo sapiens, UniProt Q06187); assay: Kinase activity assay, Btk
TEC = biological target: T2, TEC (Homo sapiens, UniProt P42680); assay: Kinase activity assay, TEC
T2 sequence (P42680 1-631): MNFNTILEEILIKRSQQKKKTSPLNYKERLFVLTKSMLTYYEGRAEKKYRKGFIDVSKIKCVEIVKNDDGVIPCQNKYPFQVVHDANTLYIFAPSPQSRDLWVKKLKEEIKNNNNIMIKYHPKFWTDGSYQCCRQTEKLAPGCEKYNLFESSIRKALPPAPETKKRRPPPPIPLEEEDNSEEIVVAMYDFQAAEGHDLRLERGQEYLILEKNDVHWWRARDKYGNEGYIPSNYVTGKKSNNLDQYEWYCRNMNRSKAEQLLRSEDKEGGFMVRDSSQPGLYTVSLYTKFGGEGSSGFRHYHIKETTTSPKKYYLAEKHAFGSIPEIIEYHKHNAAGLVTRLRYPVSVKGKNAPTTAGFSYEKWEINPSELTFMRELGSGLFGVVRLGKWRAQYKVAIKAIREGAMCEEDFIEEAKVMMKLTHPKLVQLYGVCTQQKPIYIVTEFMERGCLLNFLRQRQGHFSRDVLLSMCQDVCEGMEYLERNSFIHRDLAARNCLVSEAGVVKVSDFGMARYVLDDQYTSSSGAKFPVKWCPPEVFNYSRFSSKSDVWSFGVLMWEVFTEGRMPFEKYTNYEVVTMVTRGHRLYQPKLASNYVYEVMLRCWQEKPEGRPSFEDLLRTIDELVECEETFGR

Measured: IC50

Chain of C-Raf (P04049 whole entry): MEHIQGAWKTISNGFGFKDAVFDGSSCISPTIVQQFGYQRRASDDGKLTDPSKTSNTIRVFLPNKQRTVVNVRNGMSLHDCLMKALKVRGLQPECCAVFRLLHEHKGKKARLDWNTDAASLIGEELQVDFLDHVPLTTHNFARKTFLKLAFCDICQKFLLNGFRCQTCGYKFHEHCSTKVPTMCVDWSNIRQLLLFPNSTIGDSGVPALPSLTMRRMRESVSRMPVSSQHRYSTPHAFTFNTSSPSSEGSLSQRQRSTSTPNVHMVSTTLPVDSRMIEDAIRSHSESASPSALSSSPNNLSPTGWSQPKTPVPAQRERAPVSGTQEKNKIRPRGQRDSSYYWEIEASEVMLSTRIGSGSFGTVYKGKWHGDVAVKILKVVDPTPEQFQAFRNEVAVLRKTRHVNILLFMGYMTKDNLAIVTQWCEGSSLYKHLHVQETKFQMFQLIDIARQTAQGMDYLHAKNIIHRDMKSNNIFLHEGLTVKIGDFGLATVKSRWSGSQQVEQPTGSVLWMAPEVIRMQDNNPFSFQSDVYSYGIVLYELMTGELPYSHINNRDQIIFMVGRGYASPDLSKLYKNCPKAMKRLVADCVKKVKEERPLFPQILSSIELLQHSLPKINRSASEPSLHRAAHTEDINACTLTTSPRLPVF
Chain of Kdr (P35968 20-1356): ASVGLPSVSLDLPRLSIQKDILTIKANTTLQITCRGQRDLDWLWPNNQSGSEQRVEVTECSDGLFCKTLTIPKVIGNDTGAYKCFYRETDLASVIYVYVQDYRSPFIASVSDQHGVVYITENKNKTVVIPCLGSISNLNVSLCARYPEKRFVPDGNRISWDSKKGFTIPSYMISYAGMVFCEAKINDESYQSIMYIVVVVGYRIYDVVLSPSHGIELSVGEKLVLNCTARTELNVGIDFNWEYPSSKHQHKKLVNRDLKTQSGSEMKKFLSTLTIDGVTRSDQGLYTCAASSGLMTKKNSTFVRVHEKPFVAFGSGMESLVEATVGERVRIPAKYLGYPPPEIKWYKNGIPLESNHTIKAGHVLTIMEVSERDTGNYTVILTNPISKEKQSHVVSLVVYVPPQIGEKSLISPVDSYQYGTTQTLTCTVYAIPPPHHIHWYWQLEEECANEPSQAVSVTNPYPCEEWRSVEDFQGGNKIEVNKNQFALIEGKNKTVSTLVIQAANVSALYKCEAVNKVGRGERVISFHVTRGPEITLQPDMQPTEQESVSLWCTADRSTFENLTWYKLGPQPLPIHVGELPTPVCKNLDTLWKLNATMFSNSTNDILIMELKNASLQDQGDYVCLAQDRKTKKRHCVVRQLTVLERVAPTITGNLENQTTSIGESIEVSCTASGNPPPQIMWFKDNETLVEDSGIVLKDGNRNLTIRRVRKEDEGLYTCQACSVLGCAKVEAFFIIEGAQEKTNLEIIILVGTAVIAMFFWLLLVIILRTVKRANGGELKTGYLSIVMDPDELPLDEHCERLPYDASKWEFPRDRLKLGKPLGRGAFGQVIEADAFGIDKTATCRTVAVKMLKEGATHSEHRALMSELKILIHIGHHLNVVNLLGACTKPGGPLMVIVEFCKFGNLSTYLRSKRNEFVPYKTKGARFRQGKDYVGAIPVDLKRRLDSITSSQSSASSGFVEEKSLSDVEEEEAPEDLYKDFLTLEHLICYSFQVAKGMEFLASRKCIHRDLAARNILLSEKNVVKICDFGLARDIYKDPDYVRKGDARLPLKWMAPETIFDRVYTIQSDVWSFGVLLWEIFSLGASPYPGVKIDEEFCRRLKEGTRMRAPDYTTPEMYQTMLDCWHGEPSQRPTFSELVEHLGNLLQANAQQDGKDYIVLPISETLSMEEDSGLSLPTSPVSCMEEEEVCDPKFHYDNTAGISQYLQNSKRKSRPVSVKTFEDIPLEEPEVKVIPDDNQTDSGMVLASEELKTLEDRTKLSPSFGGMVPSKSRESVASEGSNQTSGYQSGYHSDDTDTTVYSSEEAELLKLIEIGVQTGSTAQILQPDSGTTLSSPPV

COc1ccnc2[nH]cc(C(=O)c3cccc(NS(=O)(=O)c4ccc(C(F)(F)F)cc4)c3F)c12 [P-2060, N-[2-Fluoro-3-(4-methoxy-1H-pyrrolo[2,3-b]pyridine-3-carbonyl)-phenyl]-4-trifluoromethyl-benzenesulfonamide]
≤ 10 µM: Kdr | C-Raf | B-Raf V600E | B-Raf | Src | TrkA

COc1cnc2[nH]cc(C(=O)c3c(F)ccc(NS(=O)(=O)c4ncn[nH]4)c3F)c2c1 [P-2061, 2H-[1,2,4]Triazole-3-sulfonic acid [2,4-difluoro-3-(5-methoxy-1H-pyrrolo[2,3-b]pyridine-3-carbonyl)-phenyl]-amide]
≤ 10 µM: Kdr | C-Raf | B-Raf V600E | Src | A-Raf | TrkA | MAP4K4

CCCS(=O)(=O)Nc1ccc(F)c(C(=O)c2c[nH]c3ncc(-c4ccc(NC(C)=O)nc4)cc23)c1F [P-2193, N-(5-{3-[2,6-Difluoro-3-(propane-1-sulfonylamino)-benzoyl]-1H-pyrrolo[2,3-b]pyridin-5-yl}-pyridin-2-yl)-acetamide]
not listed: TrkA | A-Raf | Btk | TEC
≤ 10 µM: all other assays above

CCCS(=O)(=O)Nc1ccc(F)c(C(=O)c2c[nH]c3ncc(-c4cnc(OC)nc4OC)cc23)c1F [P-2199, Propane-1-sulfonic acid {3-[5-(2,4-dimethoxy-pyrimidin-5-yl)-1H-pyrrolo[2,3-b]pyridine-3-carbonyl]-2,4-difluoro-phenyl}-amide]
not listed: Src | TrkA | A-Raf | PI3Kα
≤ 10 µM: all other assays above

CCCS(=O)(=O)Nc1ccc(F)c(C(=O)c2c[nH]c3ncc(-c4ccc(N)nc4)cc23)c1F [P-2214, Propane-1-sulfonic acid {3-[5-(6-amino-pyridin-3-yl)-1H-pyrrolo[2,3-b]pyridine-3-carbonyl]-2,4-difluoro-phenyl}-amide]
not listed: TrkA | A-Raf
≤ 10 µM: all other assays above

CCCS(=O)(=O)Nc1ccc(F)c(C(=O)c2c[nH]c3ncc(CCCOC)cc23)c1F [P-2240, propane-1-sulfonic acid {2,4-difluoro-3-[5-(3-methoxy-propyl)-1H-pyrrolo[2,3-b]pyridine-3-carbonyl]-phenyl}-amide]
not listed: Fms | PI3Kα | Flt1 | Btk | TEC
≤ 10 µM: all other assays above

CCCCS(=O)(=O)Nc1ccc(F)c(C(=O)c2c[nH]c3ncc(-c4ccc(F)cc4)cc23)c1F [P-2301, Butane-1-sulfonic acid {2,4-difluoro-3-[5-(4-fluoro-phenyl)-1H-pyrrolo[2,3-b]pyridine-3-carbonyl]-phenyl}-amide]
≤ 10 µM: Kdr | Fms | B-Raf V600E | B-Raf | Src | Kit | TrkA | MAP4K4

O=C(c1c(F)ccc(NS(=O)(=O)C(F)(F)F)c1F)c1c[nH]c2ncc(-c3ccc(F)cc3)cc12 [P-2344, N-{2,4-Difluoro-3-[5-(4-fluoro-phenyl)-1H-pyrrolo[2,3-b]pyridine-3-carbonyl]-phenyl}-C,C,C-trifluoro-methanesulfonamide]
≤ 10 µM: Kdr | Fms | B-Raf V600E | B-Raf | Src | Kit | TrkA

CCCCS(=O)(=O)Nc1ccc(F)c(C(=O)c2c[nH]c3ncc(-c4cnn(C)c4)cc23)c1 [P-2432, Butane-1-sulfonic acid {4-fluoro-3-[5-(1-methyl-1H-pyrazol-4-yl)-1H-pyrrolo[2,3-b]pyridine-3-carbonyl]-phenyl}-amide]
not listed: TrkA | A-Raf | PI3Kα
≤ 10 µM: all other assays above

Cn1cc(-c2cnc3[nH]cc(C(=O)c4cc(NS(=O)(=O)C5CCCCC5)ccc4F)c3c2)cn1 [P-2434, Cyclohexanesulfonic acid {4-fluoro-3-[5-(1-methyl-1H-pyrazol-4-yl)-1H-pyrrolo[2,3-b]pyridine-3-carbonyl]-phenyl}-amide]
not listed: TrkA | A-Raf | PI3Kα
≤ 10 µM: all other assays above

Cn1cc(-c2cnc3[nH]cc(C(=O)c4cccc(NS(=O)(=O)C5CCCCC5)c4)c3c2)cn1 [P-2457, Cyclohexanesulfonic acid {3-[5-(1-methyl-1H-pyrazol-4-yl)-1H-pyrrolo[2,3-b]pyridine-3-carbonyl]-phenyl}-amide]
not listed: C-Raf | B-Raf | TrkA | A-Raf | PI3Kα
≤ 10 µM: all other assays above
